Source: ChEMBL document CHEMBL1123919, “Molecular modification of anticholinergics as probes for muscarinic receptors. 3. Conformationally restricted analogues of benactyzine” (J Med Chem, 1987)

Key:
[1] = molecular target: Muscarinic acetylcholine receptor; assay: Compound was evaluated for the inhibition of binding of [3H]QNB (quinuclidinyl benzilate) to striatal Muscarinic acetylcholine receptor; format: protein assay
Rattus norvegicus = species on record: Rattus norvegicus; assay: Antimuscarinic potency is measured as its ability to block ACh-induced contractions of the rat ileum.; format: functional; conditions: read-out: pA2 (converted)

Row | IC50 [1] | SMILES | Kb (Rattus norvegicus)
1 | 19000 nM | CCN(CC)C[C@H]1C[C@@H]2COC(c3ccccc3)(c3ccccc3)[C@@H]2O1.Cl | –
2 | – | CCN(CC)CC[C@@H]1COC(c2ccccc2)(c2ccccc2)[C@@H]1O | 646 nM
3 | – | CCN(CC)CC[C@H]1COC(c2ccccc2)(c2ccccc2)[C@@H]1O | 20000 nM
4 | 2000 nM | CCN(CC)CCC1COC(c2ccccc2)(c2ccccc2)C1=O.Cl (stereo not given) | 447 nM
